According to paper PMC11783601, “Analogue-Sensitive Inhibition of Histone Demethylases Uncovers Member-Specific Function in Ribosomal Protein Synthesis” (Journal of the American Chemical Society, 2025):

Test system: endogenous 2OG enzymes
Test: Effect of 6A/B on post-translational/post-synthetic modifications in HEK293T cells (Western blot, dot blot)
Type: cell-based, human
Protocol: To test the orthogonality of NOL toward wild type KDM4A, HEK293T cells, either nontransfected or transfected with KDM4A, were individually treated with DMSO, 400 μM 6A or 10 μM n-octyl IOX1, a nonspecific inhibitor of 2OG enzymes. […] To further probe for off-target effects of 6 on endogenous 2OG enzymes, HEK293T cells were cultured with DMSO or 400 μM 6A and examined for several postsynthetic modifications catalyzed by these dioxygenases. Key trimethylated lysine marks on extracted histone were analyzed by Western blot using corresponding antibodies (Figure S31). […] Similarly, no change in prolyl hydroxylation was detected when cellular extracts were subjected to the pan hydroxyproline antibody. […]
washed with TBST 3 times, 5 minutes each and incubated with methylene blue solution (Sigma 03978) for loading determination.
15. Determining the effect of 6A/B on post-translational modifications in HEK293T cells To determine the effects of 6B on 5hmC and 5mC levels, and correspondingly any proteins responsible for addition or removal of these motifs, HEK293-T cells (ATCC CRL-1573) were plated into 6-well tissue culture plates (Corning) in DMEM (Corning) supplemented with 10% FBS (Corning) and 1X Antibiotic/Antimycin (Penicillin/Streptomycin/Fungiozone) (Cytiva HyClone) in an incubator held at 37 °C with 5% CO2. At 75% confluency, cells were treated with 200µM 6B or equivalent volume of DMSO and left to incubate at 37 °C. 24 hours later, the media was aspirated, washed with 1X PBS (Corning) and uplifted via trypsinization (Gibco TrypLE™ Express Enzyme). Cells were centrifuged at 3000xg for 3 minutes, washed with 1X PBS and centrifuged again at 3000xg for 3 minutes.
To study the effect on genomic DNA, genomic DNA was extracted with Fisher GeneJET gemoic DNA Purification Kit (Fisher K0721) following manufactures protocol. 1000ng of gDNA, as measured via nanodrop, was then subject to Dot Blot experiment. Briefly, 20µL of 1000ng gDNA was added to 40µL of 2M NaOH-50mM EDTA solution for 3 minutes at room temperature. 140µL of 10mM Tris/1mM EDTA pH 8.0 (TE) buffer was added and heated at 95 °C for 10 minutes.
Aliquots were then transferred directly to ice and 200µL of 2M Ammonium Acetate was added and left on ice for 5 minutes. Meanwhile, PVDF Imoblinin P (Merck Millipore Ltd.) membrane was cut to size, activated with MeOH for 30 seconds and incubated in TE buffer for 5 minutes while shaking. The membrane was then placed on a 96-well Bio-Dot microfiltration apparatus (Bio-Rad), washed with 400µL of TE buffer and the gDNA solution was applied and vacuum filtered. 400µL of TE buffer was then used to wash the membrane post gDNA binding. The membrane was then dried at 37 °C for 30 minutes followed by blocking in 5% milk concentrate (Bio-Rad) TBST solution for 1 hour at room temperature. Primary antibody 5-mC (Abcam […]
was applied and left to rotate overnight at 4 °C. The following day, the blots were washed 3 times, 5 minutes each with TBST and secondary antibody of goat-anti Rabbit antibody (CST 7074) in 5% milk/TBST at 1-10000 dilution was added for 1 hour at room temperature while shaking. The […]
To study the effect of histone methyl motifs (H3K4me3, H3K9me3, H3K27me3, H3K36me3, H3K79me3) and hydroxyproline motif, cell pellets were lysed with RIPA buffer with EDTA (Fisher J61529) supplemented with 1X protease inhibitor tablet (Roche). […] The protein concentration was determined using Bradford assay kit (BioRad Laboratories) with BSA as a […]

SMILES: CCCCCCCCOC(=O)C(=O)NC(CC(C)C)C(=O)O [6A, L-Leu octyl-ester NOG]
- prolyl hydroxylation (pan hydroxyproline antibody) (HEK293T cells, 400 μM 6A): no change
- trimethylated K4, K9, K27, and K36 levels in histone H3 (HEK293T cells, 400 μM 6A, Western blot): No change
- 5mC, 5hmC, and m6A modifications on DNA and RNA (HEK293T cells, dot blot assays): no effect
- 5mC and 5hmC marks on genomic DNA (HEK293T cells, dot-blot assay): no inhibitory effect
- dimethyllysine, trimethyllysine and hydroxyproline marks on cellular proteins (HEK293T cellular extracts, pan antibodies, Western blot): no inhibitory effect
